Test results published in patent publication US4609664A, “Antiasthmatic piperidylidene derivatives” (Sandoz Ltd., priority 1980, dated 1986).
Where two headings read alike, the source gives them in different places.

System: cutaneous anaphylactic reaction
Assay: passive cutaneous anaphylaxis (PCA) test in the rat
Format: in vivo
Settings: dose decreasing diameter of blue area by 50% vs solvent controls, female rats
Protocol: This activity is indicated in the passive cutaneous anaphylaxis (PCA) test in the rat.
The method employed in this test is based on those described by Mota, Immunology 7, 681 (1964) and Stofland and Share, J. Physiol. Pharmacol. 52, 1114 (1974). Female rats (180-200 g) are sensitized by subcutaneous administration of 1 mg of ovalbumin and 200 mg aluminium hydroxide, dissolved in 1 ml of physiological saline solution and intraperitoneal administration of 0.5 ml of Haemophilus pertussis vaccine (SchweizerischesSerum- und Impfinstitut, Bern, Switzerland; 4×10^10 organism/ml). Fourteen day later, the animals are decapited, the blood centrifuged and the serum (anti-ovalbumin serum) collected and deep frozen.
The diluted anti-ovalbumin serum is injected intradermally (0.1 ml per injection site) at […] on the backs of untreated, female rats. Twenty-four hours after the passive sensitisation, the rats receive either solvent or the test compound i.v. in a tail-vein or per os. Immediately afterwards or, in the case of p.o. administration, 60 minutes later, the animals receive an intravenous injection of 1 ml of antigen. The antigen (5 mg/ml) is dissolved in a 0.25% solution of Evans blue dye in physiological saline. In the controls this injection elicits a cutaneous anaphylactic reaction, the intensity of which is proportional to the distance to which the dye diffuses into the tissue surrounding the four sensitisation sites. Thirty minutes later, the rats are killed in CO2 and the diameter in mm of the blue spot at each injection site measured. The drug dose decreasing the diameter of the blue area by 50% compared with solvent pretreated control rats (ED50), is obtained from the regression line. The dose-effect correlation is tested for statistical significance.
In the above test, compounds of the formula I are found to be active on administration at dosages of from about 0.1 to about 3.2 mg/kg p.o. and from about 0.056 to about 1.00 mg/kg i.v. ED50 values for the representative compounds 4-{1-[2-[2-(2-hydroxy-ethoxy)ethoxy]ethyl]piperidin-4-yliden}-4H-benzo[4,5]cyclohepta[1,2-b]thiophen-10(9H)-one. HBr (Compound A) and 2-{2-[2-[4-(5H-dibenzo[a,d]cyclohept-5-yliden)piperidin-1-yl]ethoxy]ethoxy}ethanol hydrogenofumarate (Compound B) as well as for the reference compound 5,5'-[(2-hydroxy-1,3-propanediyl)bis-(oxy)]bis[4-oxo-4H-1-benzopyran-2-carboxylic acid]

[1] = iv, i.v. in a tail-vein, immediately before antigen, read-out: ED50 (i.v.)
[2] = po, 60 minutes before antigen, read-out: ED50 (p.o)

| SMILES | ED50 [1] [mg/kg] | ED50 [2] [mg/kg] |
| --- | --- | --- |
| O=C1Cc2ccccc2C(=C2CCN(CCOCCOCCO)CC2)c2ccsc21 [Compound A, 4-{1-[2-[2-(2-hydroxy-ethoxy)ethoxy]ethyl]piperidin-4-yliden}-4H-benzo[4,5]cyclohepta[1,2-b]thiophen-10(9H)-one. HBr] | ~0.21 | ~1.8 |
| OCCOCCOCCN1CCC(=C2c3ccccc3C=Cc3ccccc32)CC1 [Compound B, 2-{2-[2-[4-(5H-dibenzo[a,d]cyclohept-5-yliden)piperidin-1-yl]ethoxy]ethoxy}ethanol hydrogenofumarate] | ~0.22 | ~0.49 |
| O=C(O)c1cc(=O)c2c(OCC(O)COc3cccc4oc(C(=O)O)cc(=O)c34)cccc2o1 [Compound C, 5,5'-[(2-hydroxy-1,3-propanediyl)bis-(oxy)]bis[4-oxo-4H-1-benzopyran-2-carboxylic acid], reference compound] | ~2.6 | – |
